Experiments:
[1] = molecular target: serotonin transporter (SERT) (Homo sapiens, UniProt P31645); test: Serotonin reuptake inhibition, [3H]-5-HT, cells transfected with 5-HT transporter cDNA; settings: for Triple reuptake inhibition (Ratio %) SERT: compound 1 μM, relative to control without compound (100%), lower value = stronger inhibition
Method: (§1) After removing the medium, each compound of Examples or Comparative Examples diluted to 1 μM in uptake buffer was added to a concentration of 200 μL/well and cultured at 37° C. for 15 minutes. 100 μL of uptake buffer containing 20-30 nM [3H]-DA was added and cultured at 37° C. for 5 minutes. The reaction solution was quickly removed and washed three times with 1 mL ice-cold uptake buffer. After dissolving the resultant in 1% SDS (0.5 mL), the degree of binding of radioisotope-labeled dopamine to the transporter was measured.
(§2) For norepinephrine(NE) and serotonin(5-HT), the degree of binding of radioisotope-labeled norepinephrine or serotonin to the transporter was measured in the same manner as above, except that cells transfected with NE or 5-HT transporter cDNA were used and [3H]-NE or [3H]-5-HT was used as a substrate.
(§3) In addition, when evaluating the reuptake inhibitory effect on dopamine, norepinephrine, and serotonin, the same method was performed without treating each compound of Examples or Comparative Examples as a control, the degree of binding of radioisotope-labeled dopamine, norepinephrine, and serotonin to the transporter was measured, and by using this as a reference (100%), the triple reuptake inhibitory effect was evaluated as a relative ratio (Ratio %). That is, in the control group, the binding of dopamine, norepinephrine, and serotonin to transporters is not inhibited, but when each compound of Examples is treated and thus the binding is inhibited, the Ratio % value decreases.

[2] = molecular target: norepinephrine transporter (NET) (Homo sapiens, UniProt P23975); test: Norepinephrine reuptake inhibition, [3H]-NE, cells transfected with NE transporter cDNA; settings: for Triple reuptake inhibition (Ratio %) NET: compound 1 μM, relative to control without compound (100%), lower value = stronger inhibition
Method: as §1, §2, §3

[3] = molecular target: dopamine transporter (DAT) (Homo sapiens, UniProt Q01959); test: Dopamine reuptake inhibition, [3H]-DA, HEK-293 cells transfected with dopamine transporter cDNA; settings: for Triple reuptake inhibition (Ratio %) DAT: compound 1 μM, relative to control without compound (100%), lower value = stronger inhibition
dopamine transporter (DAT), sequence (Q01959 whole entry, species assumed): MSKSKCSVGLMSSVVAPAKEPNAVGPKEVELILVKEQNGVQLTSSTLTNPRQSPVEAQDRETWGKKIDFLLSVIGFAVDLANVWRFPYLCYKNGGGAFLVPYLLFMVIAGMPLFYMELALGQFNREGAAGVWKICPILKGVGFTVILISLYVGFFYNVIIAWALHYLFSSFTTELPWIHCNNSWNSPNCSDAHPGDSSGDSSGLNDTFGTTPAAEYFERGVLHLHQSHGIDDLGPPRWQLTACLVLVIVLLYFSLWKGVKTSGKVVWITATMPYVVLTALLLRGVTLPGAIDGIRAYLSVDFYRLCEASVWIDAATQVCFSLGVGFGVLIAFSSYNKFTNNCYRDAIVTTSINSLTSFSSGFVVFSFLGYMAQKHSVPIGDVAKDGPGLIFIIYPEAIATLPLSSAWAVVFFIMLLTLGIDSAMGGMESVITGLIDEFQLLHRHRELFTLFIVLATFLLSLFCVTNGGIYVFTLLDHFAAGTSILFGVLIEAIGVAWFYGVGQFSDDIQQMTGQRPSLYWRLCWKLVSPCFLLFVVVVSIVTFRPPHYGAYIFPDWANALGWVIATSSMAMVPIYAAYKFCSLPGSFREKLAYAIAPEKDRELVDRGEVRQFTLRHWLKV
Method: as §1, §3

serotonin transporter (SERT), sequence (P31645 whole entry, species assumed): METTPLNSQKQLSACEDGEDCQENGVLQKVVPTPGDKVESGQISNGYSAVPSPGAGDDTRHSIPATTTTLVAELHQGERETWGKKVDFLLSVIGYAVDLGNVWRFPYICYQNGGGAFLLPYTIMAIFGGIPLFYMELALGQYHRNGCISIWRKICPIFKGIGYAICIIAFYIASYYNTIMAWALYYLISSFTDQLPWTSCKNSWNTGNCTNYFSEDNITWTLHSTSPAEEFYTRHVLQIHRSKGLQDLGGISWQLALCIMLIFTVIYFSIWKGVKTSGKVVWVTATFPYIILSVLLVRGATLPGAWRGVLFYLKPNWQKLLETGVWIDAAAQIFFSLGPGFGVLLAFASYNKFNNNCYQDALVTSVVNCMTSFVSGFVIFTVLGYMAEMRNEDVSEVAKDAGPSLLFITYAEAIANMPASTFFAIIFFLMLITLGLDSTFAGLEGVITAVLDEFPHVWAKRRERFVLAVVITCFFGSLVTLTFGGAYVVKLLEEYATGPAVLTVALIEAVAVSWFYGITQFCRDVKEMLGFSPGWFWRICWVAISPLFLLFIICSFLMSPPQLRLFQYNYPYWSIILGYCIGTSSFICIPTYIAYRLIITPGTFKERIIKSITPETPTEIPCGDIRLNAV
norepinephrine transporter (NET), sequence (P23975 whole entry, species assumed): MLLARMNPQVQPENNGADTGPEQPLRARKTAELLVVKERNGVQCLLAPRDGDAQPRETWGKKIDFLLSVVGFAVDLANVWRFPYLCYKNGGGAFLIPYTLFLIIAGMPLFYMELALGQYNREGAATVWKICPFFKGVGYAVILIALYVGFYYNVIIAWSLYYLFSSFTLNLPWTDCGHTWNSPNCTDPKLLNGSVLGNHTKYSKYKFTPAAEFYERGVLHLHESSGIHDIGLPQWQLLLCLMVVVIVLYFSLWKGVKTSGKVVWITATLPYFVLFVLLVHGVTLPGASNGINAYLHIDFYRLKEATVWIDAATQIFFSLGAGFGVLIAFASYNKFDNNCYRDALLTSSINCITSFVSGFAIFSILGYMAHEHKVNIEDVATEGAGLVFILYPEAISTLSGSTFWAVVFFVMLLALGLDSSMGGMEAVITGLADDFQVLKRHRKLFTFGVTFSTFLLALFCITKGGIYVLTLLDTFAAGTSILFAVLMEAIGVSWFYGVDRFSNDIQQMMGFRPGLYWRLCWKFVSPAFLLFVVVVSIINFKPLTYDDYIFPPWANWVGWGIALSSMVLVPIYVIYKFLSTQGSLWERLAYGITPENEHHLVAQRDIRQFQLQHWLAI

Row | Structure (SMILES) | IC50 [1] [nM] | Triple reuptake inhibition (Ratio %) SERT [1] [%] | IC50 [2] [nM] | Triple reuptake inhibition (Ratio %) NET [2] [%] | IC50 [3] [nM] | Triple reuptake inhibition (Ratio %) DAT [3] [%]
1 | COC(=O)c1ccc2[nH]c(-c3nnc(CN4CCC(Cc5ccccc5)CC4)[nH]3)cc2c1 [Example 20, methyl 2-(5-((4-benzylpiperidin-1-yl)methyl)-4H-1,2,4-triazol-3-yl)-1H-indol-5-carboxylate] | 643 | 50.14 | 748 | 38.22 | 80 | 5.14
2 | c1ccc(CC2CCN(Cc3nnc(-c4ccc5ccccc5c4)[nH]3)CC2)cc1 [Example 21, 4-benzyl-1-((5-(naphthalen-2-yl)-4H-1,2,4-triazol-3-yl)methyl)piperidine] | 2090 | 50.05 | 619 | 27.49 | 259 | 20.41
3 | c1ccc(CC2CCN(Cc3nnc(-c4c[nH]c5ccccc45)[nH]3)CC2)cc1 [Example 22, 3-(5-((4-benzylpiperidin-1-yl)methyl)-4H-1,2,4-triazol-3-yl)-1H-indole] | 945 | 47.99 | 644 | 32.07 | 187 | 19.30
4 | FC(F)(F)c1ccc2[nH]c(-c3nnc(CN4CCC(Cc5ccccc5)CC4)[nH]3)cc2c1 [Example 23, 2-(5-((4-benzylpiperidin-1-yl)methyl)-4H-1,2,4-triazol-3-yl)-5-(trifluoromethyl)-1H-indole] |  | 125.38 |  | 90.00 |  | 46.60
5 | Clc1cccc2[nH]c(-c3nnc(CN4CCC(Cc5ccccc5)CC4)[nH]3)cc12 [Example 24, 2-(5-((4-benzylpiperidin-1-yl)methyl)-4H-1,2,4-triazol-3-yl)-4-chloro-1H-indole] |  | 109.21 |  | 26.69 |  | 6.56
6 | c1ccc(CC2CCN(Cc3nnc(-c4cc5ccccc5o4)[nH]3)CC2)cc1 [Example 25, 1-((5-(benzofuran-2-yl)-4H-1,2,4-triazol-3-yl)methyl)-4-benzylpiperidine] |  | 73.17 |  | 76.00 |  | 26.92
7 | c1ccc(CC2CCN(Cc3nnc(-c4cc5ccccc5s4)[nH]3)CC2)cc1 [Example 26, 1-((5-(benzo[b]thiophen-2-yl)-4H-1,2,4-triazol-3-yl)methyl)-4-benzylpiperidine] |  | 88.78 |  | 53.01 |  | 26.92
8 | c1ccc(CC2CCN(Cc3nnc(-c4ccc5c(c4)OCO5)[nH]3)CC2)cc1 [Example 27, 1-((5-(benzo[d][1,3]dioxol-5-yl)-4H-1,2,4-triazol-3-yl)methyl)-4-benzylpiperidine] | 968 | 59.52 | 1990 | 53.55 | 62 | 9.71
9 | O=C(O)c1ccc2[nH]c(-c3nnc(CN4CCC(Cc5ccccc5)CC4)[nH]3)cc2c1 [Example 28, 2-(5-((4-benzylpiperidin-1-yl)methyl)-4H-1,2,4-triazol-3-yl)-1H-indol-5-carboxylic acid] |  | 93.63 |  | 85.85 |  | 65.47
10 | Fc1ccc2[nH]c(-c3nnc(CN4CCC(Cc5ccc(Cl)c(Cl)c5)CC4)[nH]3)cc2c1 [Example 29, 2-(5-((4-(3,4-dichlorobenzyl)piperidin-1-yl)methyl)-4H-1,2,4-triazol-3-yl)-5-fluoro-1H-indole] |  | 72.63 |  | 45.28 |  | 36.13
11 | Cc1ccc2[nH]c(-c3nnc(CN4CCC(Cc5ccc(Cl)c(Cl)c5)CC4)[nH]3)cc2c1 [Example 30, 2-(5-((4-(3,4-dichlorobenzyl)piperidin-1-yl)methyl)-4H-1,2,4-triazol-3-yl)-5-methyl-1H-indole] |  | 88.71 |  | 96.77 |  | 72.11
12 | COc1cc2cc(-c3nnc(CN4CCC(Cc5ccc(Cl)c(Cl)c5)CC4)[nH]3)[nH]c2cc1OC [Example 31, 2-(5-((4-(3,4-dichlorobenzyl)piperidin-1-yl)methyl)-4H-1,2,4-triazol-3-yl)-5,6-dimethoxy-1H-indole] | 276 | 32.68 | 459 | 32.54 | 204 | 19.20
13 | Fc1ccc2[nH]c(-c3nnc(CN4CCC(c5c[nH]c6ccccc56)CC4)[nH]3)cc2c1 [Example 32, 2-(5-((4-(1H-indol-3-yl)piperidin-1-yl)methyl)-4H-1,2,4-triazol-3-yl)-5-fluoro-1H-indole] |  | 51.31 |  | 93.09 |  | 44.81
14 | c1ccc(CC2CCN(Cc3nnc(-c4cc5ccccc5[nH]4)o3)CC2)cc1 [Example 33, 2-((4-benzylpiperidin-1-yl)methyl)-5-(1H-indol-2-yl)-1,3,4-oxadiazole] |  | 103.08 |  | 145.38 |  | 97.72
15 | Clc1ccc(CC2CCN(Cc3nnc(-c4cc5ccccc5[nH]4)o3)CC2)cc1Cl [Example 34, 2-((4-(3,4-dichlorobenzyl)piperidin-1-yl)methyl)-5-(1H-indol-2-yl)-1,3,4-oxadiazole] |  | 94.18 |  | 124.25 |  | 90.85
16 | Oc1cc2cc(-c3nnc(CN4CCC(Cc5ccccc5)CC4)[nH]3)[nH]c2cc1O [Example 35, 2-(5-((4-benzylpiperidin-1-yl)methyl)-4H-1,2,4-triazol-3-yl)-1H-indol-5,6-diol] | 300 | 27.99 | 427 | 56.53 | 629 | 35.65
17 | COc1ccc2[nH]cc(-c3nnc(CN4CCC(Cc5ccccc5)CC4)[nH]3)c2c1 [Example 36, 3-(5-((4-benzylpiperidin-1-yl)methyl)-4H-1,2,4-triazol-3-yl)-5-methoxy-1H-indole] |  | 41.52 |  | 85.40 |  | 69.78
18 | COc1cccc2c(-c3nnc(CN4CCC(Cc5ccccc5)CC4)[nH]3)c[nH]c12 [Example 37, 3-(5-((4-benzylpiperidin-1-yl)methyl)-4H-1,2,4-triazol-3-yl)-7-methoxy-1H-indole] | 322 | 27.71 | 1570 | 79.91 | 349 | 40.29
19 | Cc1ccc2c(-c3nnc(CN4CCC(Cc5ccccc5)CC4)[nH]3)c[nH]c2c1 [Example 38, 3-(5-((4-benzylpiperidin-1-yl)methyl)-4H-1,2,4-triazol-3-yl)-6-methyl-1H-indole] | 518 | 51.55 | 361 | 64.82 | 670 | 31.70
20 | Cc1ccc2[nH]cc(-c3nnc(CN4CCC(Cc5ccccc5)CC4)[nH]3)c2c1 [Example 39, 3-(5-((4-benzylpiperidin-1-yl)methyl)-4H-1,2,4-triazol-3-yl)-5-methyl-1H-indole] |  | 58.07 |  | 99.14 |  | 79.20
21 | Clc1cccc2c(-c3nnc(CN4CCC(Cc5ccccc5)CC4)[nH]3)c[nH]c12 [Example 40, 3-(5-((4-benzylpiperidin-1-yl)methyl)-4H-1,2,4-triazol-3-yl)-7-chloro-1H-indole] | 648 | 53.66 | 924 | 92.42 | 670 | 50.15
22 | Clc1ccc2[nH]cc(-c3nnc(CN4CCC(Cc5ccccc5)CC4)[nH]3)c2c1 [Example 41, 3-(5-((4-benzylpiperidin-1-yl)methyl)-4H-1,2,4-triazol-3-yl)-5-chloro-1H-indole] |  | 57.01 |  | 86.61 |  | 62.96
23 | COC(=O)c1cccc2c(-c3nnc(CN4CCC(Cc5ccccc5)CC4)[nH]3)c[nH]c12 [Example 42, methyl 3-(5-((4-benzylpiperidin-1-yl)methyl)-4H-1,2,4-triazol-3-yl)-1H-indol-7-carboxylate] | 417 | 42.17 | 969 | 96.81 | 453 | 42.13
24 | Nc1ccc2[nH]cc(-c3nnc(CN4CCC(Cc5ccccc5)CC4)[nH]3)c2c1 [Example 43, 3-(5-((4-benzylpiperidin-1-yl)methyl)-4H-1,2,4-triazol-3-yl)-1H-indol-5-amine] | 506 | 35.57 | 4040 | 88.30 | 435 | 54.93
25 | COc1ccc2[nH]cc(-c3nnc(CN4CCC(Cc5ccc(Cl)c(Cl)c5)CC4)[nH]3)c2c1 [Example 44, 3-(5-((4-(3,4-dichlorobenzyl)piperidin-1-yl)methyl)-4H-1,2,4-triazol-3-yl)-5-methoxy-1H-indole] |  | 28.87 |  | 92.59 |  | 80.58

— patent publication US20230212144A1, “5-MEMBERED HETEROARYL DERIVATIVE CONTAINING AT LEAST ONE N, AND PHARMACEUTICAL COMPOSITION FOR PREVENTING OR TREATING MENTAL DISORDERS, CONTAINING SAME AS ACTIVE INGREDIENT” (DAEGU-GYEONGBUK MEDICAL INNOVATION FOUNDATION, priority 2020, published 2023)
